Data taken from patent US7307062B2, “Method for treating a mental disorder” (priority 2003, dated 2007).
“Also recorded” adds a separate entry of the source. One block for each molecule: values may come before it.

What was measured:
[1] = system: child with autistic disorder; experiment: Case history CM (autistic disorder); type: in vivo, human; settings: clarithromycin
From the text: […] They remained hospitalized for 80 days and suffered from significant medical complications due to their premature birth. […] They have severe delays in fine and gross motor skills. Also, severe delays in receptive and expressive language, consistent with their premature birth. […] […] […] Specific behaviors include irritability and temper tantrums, odd meaningless movements, and odd meaningless vocalizations. […] In spite of the placement of tympanostomy tubes […], […] continued to develop recurrent and persistent otis media untila second set of tubes were inserted approximately six months later. […] Head banging and tantrums stopped.

[2] = system: child with autistic disorder; experiment: Case history five (autistic disorder); type: in vivo, human
[3] = system: adolescent with ADHD, bipolar and conduct disorder; experiment: Case study three (ADHD, major depressive disorder, bipolar)
[4] = system: child with Childhood Disintegrative Disorder; experiment: Case history two (childhood disintegrative disorder), metronidazole therapy; type: in vivo, human
[5] = system: child with autistic disorder; experiment: Case study one (autistic disorder), successive antimicrobial and probiotic treatments
[6] = system: person with psychiatric symptoms; experiment: Case study four (major depressive disorder, obsessive compulsive disorder, atypical psychosis, Crohn's disease); type: in vivo, human
From the text: patient four was a person whose symptoms were consistent with major depressive disorder, obsessive compulsive disorder, and atypical psychosis. Standard anti-psychotic medications were unsuccessful in treating the symptoms. The person also had severe gastrointestinal symptoms and was subsequently diagnosed with Crohn's disease. The person began treatment with prednisone and mesalamine, a standard therapy for Crohn's disease. […] Behavior problems were absent. […] A few months thereafter, the person experienced an acute psychiatric relapse and was admitted to the hospital. A colonoscopy confirmed active lesions in the right colon consistent with Crohn's disease. Treatment with prednisone and mesalamine was initiated for their Crohn's disease, with the prednisone later tapered to 20 mg/day after several months. […] the person was able to return to high school and completed their junior year with high honors.

children with autism = experiment: Vancomycin and retreatment followed by probiotic fecal enema in children with autism lacking peptostreptococcal species; settings: four children with autism
[7] = system: children with regressive onset autism; experiment: Open-label trial of oral vancomycin in children with regressive-onset autism
[8] = metronidazole standard dosage for 17 days
[9] = Wilcoxon Signed Ranks Z=−2.9, p=0.003, baseline vs during therapy
[10] = vancomycin 500 mg/day orally, of ten children studied

Structure (SMILES): CC[C@H]1OC(=O)[C@H](C)[C@@H](O[C@H]2C[C@@](C)(OC)[C@@H](O)[C@H](C)O2)[C@H](C)[C@@H](O[C@@H]2O[C@H](C)C[C@H](N(C)C)[C@H]2O)[C@](C)(OC)C[C@@H](C)C(=O)[C@H](C)[C@@H](O)[C@]1(C)O [clarithromycin]
- behavior, parental report [1]: became more cooperative and was much calmer
- head banging and tantrums, parental report [1]: stopped

Structure (SMILES): COCC1=C(C(=O)OC(C)OC(=O)OC(C)C)N2C(=O)[C@@H](NC(=O)/C(=N\OC)c3csc(N)n3)[C@H]2SC1 (stereo partly drawn) [cefpodoxime proxetil]
- behavior as soon as antibiotics were finished ([2]; in vivo): became more hyper, more easily aggitated, and more aggressive
- autistic symptoms while taking the antimicrobial ([2]; prescribed for ear infection, calmness, improved sleep patterns, more signs for communication): positive improvement in their autistic symptoms

- behavior during first week of treatment ([3]; metronidazole 500 mg b.i.d.): highly agitated
Structure (SMILES): Cc1ncc([N+](=O)[O-])n1CCO [metronidazole]
- rating of behavior problems previously severe in degree ([3]; after two months of metronidazole treatment): slight in degree or completely resolved
- behavior after discontinuation ([3]; two weeks after metronidazole therapy was discontinued): behavior deteriorated
- Social behavior, After Metronidazole ([4]; after discontinuation, on Lactobacillus Acidophilus GG): Reverted to baseline
- Attitude/State of Mind, After Metronidazole ([4]; after discontinuation, on Lactobacillus Acidophilus GG 20 billion cells per day): Reverted to baseline
- Speech, After Metronidazole ([4]; after discontinuation, on Lactobacillus Acidophilus GG, logic and coherence of speech): Initially regressed,
- Ability: Physical or Mental, After Metronidazole ([4]; after discontinuation, on Lactobacillus Acidophilus GG, sleep): Remained somewhat
- Speech, After Metronidazole ([4]; after discontinuation, on Lactobacillus Acidophilus GG, voice quality): Reverted to baseline
- Ability: Physical or Mental, During Metronidazole [4, 8]: Fell asleep quickly
- Attitude/State of Mind, During Metronidazole [4, 8]: Aware of surroundings; also recorded: Relaxed and calm; also recorded: Happy, pleasant
- Social behavior, During Metronidazole ([4]; metronidazole standard dosage for 17 days, aggression towards little brother): No aggression towards
- Speech, During Metronidazole ([4]; metronidazole standard dosage for 17 days, logic and coherence of speech): Speech on topic, more
- Social behavior, During Metronidazole ([4]; metronidazole standard dosage for 17 days, peer interaction and play skills): Marked improvement in
- Speech, During Metronidazole ([4]; metronidazole standard dosage for 17 days, social communication): Initiated and
- Speech, During Metronidazole ([4]; metronidazole standard dosage for 17 days, voice quality): Voice normal, natural,
- positive gains after discontinuation ([4]; within a week after the discontinuation of metronidazole): began to deteriorate
- aggressive and hyperactive behaviors ([5]; metronidazole 250 mg t.i.d. for 21 days, end of treatment): substantially reduced
- time of first deterioration in behavior ([6]; after first metronidazole course): two months following the discontinuance
- clinical response, first course ([6]; metronidazole 250 mg t.i.d. six weeks, with prednisone and mesalamine): rapid improvement in attitude, mood and rebounded academically
- clinical response, second course ([6]; metronidazole 500 mg t.i.d. for 30 days, within three weeks): dramatic improvement in their psychiatric symptoms

Structure (SMILES): CN[C@H](CC(C)C)C(=O)N[C@H]1C(=O)N[C@@H](CC(N)=O)C(=O)N[C@H]2C(=O)N[C@H]3C(=O)N[C@H](C(=O)N[C@H](C(=O)O)c4cc(O)cc(O)c4-c4cc3ccc4O)[C@H](O)c3ccc(c(Cl)c3)Oc3cc2cc(c3O[C@@H]2O[C@H](CO)[C@@H](O)[C@H](O)[C@H]2O[C@H]2C[C@](C)(N)[C@H](O)[C@H](C)O2)Oc2ccc(cc2Cl)[C@H]1O [vancomycin]
- relapse after discontinuance of antimicrobial therapy (children with autism): relapsed within two weeks
- response to treatment (children with autism; complete absence of peptostreptococcal species in stool): responded favorably
- duration of hyperactivity pattern ([5]; emerged three days after initiation of vancomycin): four
- duration of lethargy ([5]; following hyperactivity pattern on vancomycin): two
- behavior after vancomycin discontinuation ([5]; shortly after discontinuation, while taking probiotic agents): behavioral deterioration was observed
- clinical response ([5]; vancomycin 125 mg q.i.d., 12-week trial): rapid and dramatic clinical improvement
- composite score, Vineland Adaptive Behavior Scales ([5]; vancomycin 125 mg q.i.d., after 8 weeks): 19 months
- increase of composite score, Vineland Adaptive Behavior Scales ([5]; vancomycin 125 mg q.i.d., first 8 weeks of treatment, baseline 11 months): 8 months
- behavior, unblinded analog rating scale, group as a whole [7, 9]: improvement
- communication, unblinded analog rating scale, group as a whole [7, 9]: improvement
- subjects with a day of marked lethargy ([7]; after the hyperactivity period): One
- basic blood, stool, and urine tests; physical examinations ([7]; baseline and throughout the study, all children): unremarkable
- analog ratings at long-term follow-up ([7]; two to eight months after discontinuance, in all but one child): returned towards baseline
- children with improvement during therapy, blinded assessment of coded, paired videotapes ([7]; vancomycin 500 mg/day orally for eight weeks, ten of eleven children scored by blinded psychologist): 8 of 10 and eight of ten
- children with no change, blinded assessment of coded, paired videotapes [7, 10]: one
- children with possible deterioration, blinded assessment of coded, paired videotapes [7, 10]: one
- duration of period of hyperactivity ([7]; within three days of initiating antibiotic treatment): 1 to 4 days
- children with a brief period of hyperactivity ([7]; within three days of initiating antibiotic treatment, eleven children): six
